What all share (assay type): in vivo
For one data set, the system named is wheat. Briefly: Test Example 5: effect on crop by foliage application, plastic box (symbol e). The note with it: 320 g/ha, 3 weeks after application. Summed up:
(§1)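 Crop and weed seeds sown in spots in sterilized diluvial soil in plastic boxes and covered with about 1.5 cm soil. Plants raised in a greenhouse at 25° C. to 30° C. for foliar application.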

The next data set deals with Monochoria vaginalis. Description: Test Example 2: herbicidal activity, application during weed generation in submerged conditions (symbol C). The conditions noted are these: Table 23; application herbicide amount 320 g/ha; grade 0-5 by criteria of Test Example 1. In a few lines: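 Seeds sown in flooded alluvial soil (4 cm water) were grown in a 25-30° C greenhouse. At the one- to two-leaf stage, diluted emulsion of compound was applied to the water surface at a predetermined rate. Effect was scored 3 weeks later.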

In a further data set the test system is Amaranthus retroflexus. Description: Test Example 4: herbicidal effect by soil treatment (symbol N). The note with it: application herbicide amount 320 g/ha. In a few lines:
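Seeds were sown in sterilized diluvial soil, covered with about 1.5 cm of soil, and the soil surface was sprayed with a water-diluted emulsion of the compound at a predetermined rate. Plants grew in a greenhouse at 25° C. to 30° C.; effects were scored visually 3 weeks after application.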

In a further data set the test system is corn. Description: Test Example 4: effect on crop by soil treatment (symbol c). The conditions noted are these: application herbicide amount 320 g/ha. Summed up: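 Steps: fill box with sterilized diluvial soil; sow seed spot-like; cover with ~1.5 cm soil; grow in greenhouse (25° C. to 30° C.).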
Another data set deals with rice. Briefly: Test Example 4: effect on crop by soil treatment (symbol b). The note with it: application herbicide amount 320 g/ha. Summed up: (§2)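 Greenhouse culture at 25° C. to 30° C. followed sowing of seed in spots on sterilized diluvial soil with a soil cover close to 1.5 cm thick.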
A further data set relates to rice plant. Description: Test Example 5: effect on crop by foliage application, plastic box (symbol b). The note with it: 320 g/ha, 3 weeks after application. In a few lines:
as §1

In a further data set the test system is soybean. Description: Test Example 4: effect on crop by soil treatment (symbol d). The note with it: application herbicide amount 320 g/ha. Summed up:
as §2

Turning to `CON=C(C)CC1CC(O)=C(c2c(C)cc(-c3cc(Cl)cc(Cl)c3)cc2C)C1=O` (centres unmarked) [6-087], the “e: wheat, effect on crop (criteria of Test Example 1)” value with wheat is 1 (Herbicidal ratio of 5% or higher and lower than 20%). In addition, in the data set on Monochoria vaginalis, the “Herbicidal effect grade, C: Monochoria vaginalis” value (from here on “Herbicidal effect grade, C”) is reported as 0 (Herbicidal ratio of 5% or lower (almost no effect)). Moreover, in the data set with Amaranthus retroflexus, the “Herbicidal effect grade, N: Amaranthus retroflexus” value (shortened to “Herbicidal effect grade, N”) is on record as 0 (Herbicidal ratio of 5% or lower (almost no effect)). Besides, in the data set on corn, the “Effect on crop grade, c: corn” value is recorded as 0 (Herbicidal ratio of 5% or lower (almost no effect)). In addition, the “Effect on crop grade, b: directly sowed rice plant” value (from here on “Effect on crop grade, b”) in the data set on rice is listed as 0 (Herbicidal ratio of 5% or lower (almost no effect)). Moreover, in the data set on rice plant, the “b: directly sowed rice plant, effect on crop (criteria of Test Example 1)” value was 1 (Herbicidal ratio of 5% or higher and lower than 20%). For the same molecule, in the data set on soybean, the “Effect on crop grade, d: soybean” value was 3 (Herbicidal ratio of 40% or higher and lower than 70%).

Take `CON=C(C)CC1CC(O)=C(c2c(C)cc(-c3ccc(OC(F)(F)F)cc3)cc2C)C1=O` (mixture of isomers) [6-056]: the “e: wheat, effect on crop (criteria of Test Example 1)” value in the data set on wheat is listed as 0 (Herbicidal ratio of 5% or lower (almost no effect)). In the data set with Monochoria vaginalis, the “Herbicidal effect grade, C” value is 0 (Herbicidal ratio of 5% or lower (almost no effect)). In addition, in the data set with Amaranthus retroflexus, the “N: Amaranthus retroflexus, herbicidal effect grade” value was 0 (Herbicidal ratio of 5% or lower (almost no effect)). The “c: corn, effect on crop grade” value with corn was 0 (Herbicidal ratio of 5% or lower (almost no effect)). Further, the “b: directly sowed rice plant, effect on crop grade” value in the data set with rice was 1 (Herbicidal ratio of 5% or higher and lower than 20%). The “b: directly sowed rice plant, effect on crop (criteria of Test Example 1)” value with rice plant was 2 (Herbicidal ratio of 20% or higher and lower than 40%). Further, in the data set on soybean, the “d: soybean, effect on crop grade” value was 0 (Herbicidal ratio of 5% or lower (almost no effect)).

Regarding `CON=C(C)CC1CC(OC(=O)N(C)C)=C(c2c(C)cc(-c3ccc(Cl)cc3)cc2C)C1=O` (mixture of isomers) [6-063], the “e: wheat, effect on crop (criteria of Test Example 1)” value with wheat is 4 (Herbicidal ratio of 70% or higher and lower than 90%). In addition, the “Herbicidal effect grade, C” value in the data set with Monochoria vaginalis is 2 (Herbicidal ratio of 20% or higher and lower than 40%). Further, the “N: Amaranthus retroflexus, herbicidal effect grade” value in the data set with Amaranthus retroflexus is given as 0 (Herbicidal ratio of 5% or lower (almost no effect)). In the data set on corn, the “c: corn, effect on crop grade” value was 0 (Herbicidal ratio of 5% or lower (almost no effect)). The “b: directly sowed rice plant, effect on crop grade” value with rice was 0 (Herbicidal ratio of 5% or lower (almost no effect)). The “b: directly sowed rice plant, effect on crop (criteria of Test Example 1)” value in the data set with rice plant is 3 (Herbicidal ratio of 40% or higher and lower than 70%). Further, the “d: soybean, effect on crop grade” value with soybean is 0 (Herbicidal ratio of 5% or lower (almost no effect)).

Take `CON=C(C)CC1CC(OC(=O)N2CCCCC2)=C(c2c(C)cc(C)cc2OC)C1=O` (centres unmarked) [6-111]: in the data set with wheat, the “e: wheat, effect on crop (criteria of Test Example 1)” value was 4 (Herbicidal ratio of 70% or higher and lower than 90%). Also, the “Herbicidal effect grade, C” value in the data set on Monochoria vaginalis is 4 (Herbicidal ratio of 70% or higher and lower than 90%). For the same molecule, the “Herbicidal effect grade, N” value with Amaranthus retroflexus is on record as 0 (Herbicidal ratio of 5% or lower (almost no effect)). The “Effect on crop grade, c: corn” value in the data set with corn is recorded as 0 (Herbicidal ratio of 5% or lower (almost no effect)). For the same molecule, the “Effect on crop grade, b” value in the data set on rice is 1 (Herbicidal ratio of 5% or higher and lower than 20%). For the same molecule, the “b: directly sowed rice plant, effect on crop (criteria of Test Example 1)” value in the data set with rice plant is 5 (Herbicidal ratio of 90% or more (almost completely withered)). In the data set with soybean, the “Effect on crop grade, d: soybean” value is listed as 0 (Herbicidal ratio of 5% or lower (almost no effect)).

As to `CON=C(C)CC1CC(OC(=O)N2CCOCC2)=C(c2c(C)cc(C)cc2OC)C1=O` (centres unmarked) [6-094], in the data set with wheat, the “e: wheat, effect on crop (criteria of Test Example 1)” value is 4 (Herbicidal ratio of 70% or higher and lower than 90%). Moreover, the “Herbicidal effect grade, C” value with Monochoria vaginalis was 1 (Herbicidal ratio of 5% or higher and lower than 20%). In addition, the “Herbicidal effect grade, N” value with Amaranthus retroflexus is on record as 0 (Herbicidal ratio of 5% or lower (almost no effect)). The “Effect on crop grade, c: corn” value in the data set with corn is 1 (Herbicidal ratio of 5% or higher and lower than 20%). Besides, the “Effect on crop grade, b” value with rice was 5 (Herbicidal ratio of 90% or more (almost completely withered)). Moreover, the “b: directly sowed rice plant, effect on crop (criteria of Test Example 1)” value in the data set on rice plant is listed as 5 (Herbicidal ratio of 90% or more (almost completely withered)). Also, the “Effect on crop grade, d: soybean” value with soybean was 0 (Herbicidal ratio of 5% or lower (almost no effect)).

Take `CON=C(C)CC1CC(OS(=O)(=O)N(C)C)=C(c2c(C)cc(C)cc2OC)C1=O` (centres unmarked) [6-095]: the “e: wheat, effect on crop (criteria of Test Example 1)” value in the data set on wheat was 4 (Herbicidal ratio of 70% or higher and lower than 90%). Also, the “Herbicidal effect grade, C” value in the data set on Monochoria vaginalis was 2 (Herbicidal ratio of 20% or higher and lower than 40%). Moreover, the “Herbicidal effect grade, N” value in the data set with Amaranthus retroflexus is 1 (Herbicidal ratio of 5% or higher and lower than 20%). The “Effect on crop grade, c: corn” value with corn was 2 (Herbicidal ratio of 20% or higher and lower than 40%). Further, the “Effect on crop grade, b” value in the data set on rice is 5 (Herbicidal ratio of 90% or more (almost completely withered)). Besides, the “b: directly sowed rice plant, effect on crop (criteria of Test Example 1)” value with rice plant is 5 (Herbicidal ratio of 90% or more (almost completely withered)). Further, the “Effect on crop grade, d: soybean” value in the data set with soybean is given as 0 (Herbicidal ratio of 5% or lower (almost no effect)).

Take `CON=C(C)CC1CC(O)=C(c2c(C)cc(-c3ccc(F)cc3)cc2C)C1=O` (mixture of isomers) [6-058]: the “e: wheat, effect on crop (criteria of Test Example 1)” value in the data set with wheat is reported as 5 (Herbicidal ratio of 90% or more (almost completely withered)). Moreover, in the data set on Monochoria vaginalis, the “Herbicidal effect grade, C” value is 5 (Herbicidal ratio of 90% or more (almost completely withered)). Moreover, the “N: Amaranthus retroflexus, herbicidal effect grade” value in the data set on Amaranthus retroflexus is 5 (Herbicidal ratio of 90% or more (almost completely withered)). The “c: corn, effect on crop grade” value in the data set with corn is recorded as 5 (Herbicidal ratio of 90% or more (almost completely withered)). In addition, the “b: directly sowed rice plant, effect on crop grade” value with rice is 5 (Herbicidal ratio of 90% or more (almost completely withered)). In addition, the “b: directly sowed rice plant, effect on crop (criteria of Test Example 1)” value with rice plant is on record as 5 (Herbicidal ratio of 90% or more (almost completely withered)). Besides, in the data set with soybean, the “d: soybean, effect on crop grade” value is 0 (Herbicidal ratio of 5% or lower (almost no effect)).

Regarding `CON=C(C)CC1CC(OC(=O)CCCC(C)=O)=C(c2c(C)cc(-c3ccc(Cl)cc3)cc2C)C1=O` (centres unmarked) [6-080], the “e: wheat, effect on crop (criteria of Test Example 1)” value in the data set on wheat was 5 (Herbicidal ratio of 90% or more (almost completely withered)). Besides, the “Herbicidal effect grade, C” value in the data set with Monochoria vaginalis is 3 (Herbicidal ratio of 40% or higher and lower than 70%). The “N: Amaranthus retroflexus, herbicidal effect grade” value in the data set with Amaranthus retroflexus is 1 (Herbicidal ratio of 5% or higher and lower than 20%). Further, the “c: corn, effect on crop grade” value with corn was 0 (Herbicidal ratio of 5% or lower (almost no effect)). For the same molecule, the “b: directly sowed rice plant, effect on crop grade” value in the data set on rice is 0 (Herbicidal ratio of 5% or lower (almost no effect)). In addition, the “b: directly sowed rice plant, effect on crop (criteria of Test Example 1)” value in the data set on rice plant is reported as 5 (Herbicidal ratio of 90% or more (almost completely withered)). For the same molecule, the “d: soybean, effect on crop grade” value in the data set on soybean is given as 0 (Herbicidal ratio of 5% or lower (almost no effect)).

For `CON=C(C)C(C(C)=NOC)C1CC(O)=C(c2c(C)cc(C)cc2C)C1=O` (centres unmarked) [1-021], the “e: wheat, effect on crop grade” value in the data set on wheat is recorded as 0 (Herbicidal ratio of 5% or lower (almost no effect)). In the data set on Monochoria vaginalis, the “Herbicidal effect grade, C” value is 0 (Herbicidal ratio of 5% or lower (almost no effect)). In addition, the “N (Amaranthus retroflexus) herbicidal effect grade” value with Amaranthus retroflexus is recorded as 0 (Herbicidal ratio of 5% or lower (almost no effect)). Further, the “c (corn) effect on crop grade” value in the data set with corn was 0 (Herbicidal ratio of 5% or lower (almost no effect)). Moreover, the “b (directly sowed rice plant) effect on crop grade” value in the data set on rice is 2 (Herbicidal ratio of 20% or higher and lower than 40%). Also, the “b: directly sowed rice plant, effect on crop grade” value in the data set on rice plant was 3 (Herbicidal ratio of 40% or higher and lower than 70%). In addition, the “d (soybean) effect on crop grade” value with soybean was 0 (Herbicidal ratio of 5% or lower (almost no effect)).

For the molecule `CON=C(C)CC1CC(O)=C(c2c(C)cc(C)cc2SC)C1=O` (centres unmarked) [6-075], in the data set on wheat, the “e: wheat, effect on crop (criteria of Test Example 1)” value was 2 (Herbicidal ratio of 20% or higher and lower than 40%). Also, the “Herbicidal effect grade, C” value in the data set with Monochoria vaginalis was 1 (Herbicidal ratio of 5% or higher and lower than 20%). Further, the “N: Amaranthus retroflexus, herbicidal effect grade” value in the data set with Amaranthus retroflexus is listed as 0 (Herbicidal ratio of 5% or lower (almost no effect)). For the same molecule, in the data set on corn, the “c: corn, effect on crop grade” value is recorded as 0 (Herbicidal ratio of 5% or lower (almost no effect)). Also, in the data set with rice, the “b: directly sowed rice plant, effect on crop grade” value was 0 (Herbicidal ratio of 5% or lower (almost no effect)). In the data set on rice plant, the “b: directly sowed rice plant, effect on crop (criteria of Test Example 1)” value was 4 (Herbicidal ratio of 70% or higher and lower than 90%). For the same molecule, the “d: soybean, effect on crop grade” value in the data set on soybean is 0 (Herbicidal ratio of 5% or lower (almost no effect)).

As for `CON=C(C)CC1CC(O)=C(c2c(C)cc(-c3ccc(Cl)cc3Cl)cc2C)C1=O` (centres unmarked) [6-088], the “e: wheat, effect on crop (criteria of Test Example 1)” value in the data set with wheat was 4 (Herbicidal ratio of 70% or higher and lower than 90%). Further, the “Herbicidal effect grade, C” value in the data set on Monochoria vaginalis is on record as 0 (Herbicidal ratio of 5% or lower (almost no effect)). For the same molecule, in the data set on Amaranthus retroflexus, the “Herbicidal effect grade, N” value was 0 (Herbicidal ratio of 5% or lower (almost no effect)). The “Effect on crop grade, c: corn” value in the data set on corn is given as 0 (Herbicidal ratio of 5% or lower (almost no effect)). Besides, the “Effect on crop grade, b” value with rice is given as 0 (Herbicidal ratio of 5% or lower (almost no effect)). In the data set on rice plant, the “b: directly sowed rice plant, effect on crop (criteria of Test Example 1)” value is on record as 5 (Herbicidal ratio of 90% or more (almost completely withered)). For the same molecule, the “Effect on crop grade, d: soybean” value in the data set with soybean is given as 5 (Herbicidal ratio of 90% or more (almost completely withered)).

For the origin of these results see US11000033B2, “Ketone or oxime compound, and herbicide” (NISSAN CHEMICAL CORPORATION, priority 2014, dated 2021).
